Holding throughout (format): in vivo, mouse
Series [1] deals with NOD mice. Description: Type 1 DM development in NOD mice (blood glucose monitoring). As to conditions: NOD female mice, 0.03 μg/Kg per os. On the procedure:
The non-obese (NOD)/Lt mice used for the experiments were purchased from Charles River Laboratories (Calco, Italy). All mice were kept under specific pathogen-free conditions. Glucose levels in the tail venous blood were quantified using a EUROFlash (Lifescan, Issy les Moulineaux, France). A diagnosis of diabetes was after two sequential glucose measurements higher than 200 mg/dl.
1,25-dihydroxy-16,23Z-diene-26,27-hexafluoro-19-nor vitamin D3, was dissolved in ethanol (1 mg/ml) and then diluted in miglyol 812. NOD/Lt. The mice were dosed orally with vehicle (miglyol 812) alone or vehicle containing Compound A (0,03 μg/Kg body weight) 5×/week from 8 to 12 or from 8 to 16 weeks of age.
NOD female mice were treated […] with Compound A (0.03 μg/Kg body weight per os) or vehicle from 8 to 12 or 16 weeks of age and glycemia levels were monitored until 38 weeks of age. […] About 90% of vehicle-treated controls were diabetic by 38 weeks of age compared to only 50% of mice treated with Compound A from 8 to 12 weeks of age. A longer treatment, from 8 to 16 weeks of age, afforded higher protection, and only 16% of NOD mice developed type 1 DM.
FIG. 1. (page 1/9) Compound A administration to 8-week-old NOD mice inhibits type 1 DM development. NOD mice were treated 5×/week with vehicle (open circles) or with 0.03 μg/Kg Compound A p.o. (filled circles) from 8 to 16 weeks of age, or from 8 to 12 weeks of age (filled squares). Type 1 DM development was monitored twice weekly by measurement of blood glucose levels. The P values were calculated by Mann-Whitney U test.

A short description of series [2]: Serum calcium levels after Compound A treatment. As to conditions: 0.03 μg/Kg per os daily for 4 days before LPS injection, NOD mice. On the procedure:
In this experiment the capacity of Compound A to inhibit LPS-induced IL-12 and IFN-γ production in vivo is tested. Mice were pre-treated with vehicle or with 0.03 μg/Kg Compound A administered per os daily for 4 days before LPS injection.
FIG. 3. […] Compound A (0.03 μg/Kg) was administered orally in miglyol to NOD mice 72, 48, 24 and 1 h before LPS injection. IFN-γ, IL-12p75 and serum calcium levels were quantified 3 h post LPS injection. Bars represent the mean ±SE of 10 mice/group. The P values were calculated by Mann-Whitney U test (* indicates P<0.05 vs. vehicle-treated NOD mice).

For series [3], the system named is CD4+ cells. Put plainly: Proliferation and IFN-γ secretion of CD4+ cells following TCR ligation. On the procedure:
Single cell suspensions from pancreatic lymph nodes or spleen were incubated with anti-CD4 mab-coated Microbeads (Miltenyi Biotec) and applied onto Mini-MACS columns (Miltenyi Biotec). Purified CD4^+ cells (6×10^5/well) were cultured for 48 h in round-bottom 96-well plates (Costar) pre-coated with 3 μg/ml purified anti-TCR mAb (ATCC HB 218; American Type Culture Collection, Manassas, Va.) with or without 100 U/ml IL-2 and/or 10 μg/ml anti-CD28 mAb. Cultures were performed in synthetic HL-1 medium (Ventrex Laboratories, Portland, Me.) supplemented with 2 mM L-glutamine and 50 μg/ml gentamicin (Sigma). To measure cell proliferation, cultures were pulsed 8 h before harvesting with 1 μCi [^3H]TdR ([…]; Radiochemical Center, Amersham, U.K.). Incorporation of [^3H]TdR was measured by liquid scintillation spectrometry. Alternatively, splenic or pancreatic lymph node CD4^+CD25^+ and CD4^+CD25^− cells were sorted with MultiSort Kit (Miltenyi Biotec, Auburn, Calif.).
Cytokines were quantified by two-sites ELISA. IFN-γ was determined using paired mAb from PharMingen (San Diego, Calif.). For capture, the mAb was AN-18.17.24. Samples were titrated and incubated overnight at 4° C. To detect bound IFN-γ plates were then incubated with biotinylated XMG1.2 mAb. […] The plates were washed again and incubated with the developing substrate p-nitrophenylphosphate disodium (Sigma) in diethanolamine buffer (pH 9.6; 100 μl/well). The reaction was stopped by adding 50 μl/well NaOH 3N, and absorbance was read at 405 nm. ELISA for IL-12p75 was performed as described (Gately, M. K., et al., Current Protocols Immunol. 1995, 3, 15:6.16.11-16.16.15). Cytokines were quantified from two to three titration points using standard curves generated by purified recombinant mouse cytokines and results expressed as cytokine concentration in ng or pg/ml. Detection limits were 15 pg/ml for both cytokines.
FIG. 5. (page 5/9) Proliferation and IFN-γ secretion following TCR ligation. Splenic and pancreatic lymph node CD4^+ cells from untreated 8 week-old (□) or 20 week-old NOD mice treated 5×/week from 8 to 16 weeks of age with vehicle (□) or with 0.03 μg/KgCompound A (▪) were positively selected and stimulated (6×10^5 cells/well) with plate-bound anti-TCR mAb (10 μg/ml) in the presence of 100 U/ml IL-2 and/or 5 μg/ml anti-CD28 mAb. A. Cells were pulsed with [^3H]-thymidine during the last 8 hrs of a 48 h culture. Data are presented as mean ±SE of thymidine incorporation (Δ cpm) from triplicate cultures, background values were 790±100 cpm. B. After 48 h of culture, IFN-γ secretion was quantified by ELISA. Results, presented as mean ±SE of triplicate cultures, are from one representative experiment out of four performed.

In series [4] the test system is aortic allografts. Put plainly: Aortic allograft histology: inflammatory cell infiltrate. The following applies: 0.03 μg/kg p.o., 60 days after transplantation. On the procedure:
Histology: Segments of aorta grafts were snap-frozen in Tissue Tek (Miles Laboratories, Elkhart, Ind.), and stored at −80° C. Frozen sections, 5 μm thick, were stained with hematoxylin and eosin, or with biotinylated mAbs against CD4, CD8, B220, CD11b or CD11c (all purchased from PharMingen, San Diego, Calif.), followed by streptavidin-peroxidase conjugate. 3-amino-9-ethylcarbazole (DAKO, Carpenteria, Calif.) was used as chromogen, and hematoxylin as a counterstain. The effect of Compound A in preventing chronic rejection was evaluated using the aortic graft model in the mouse. Graft combinations were syngeneic or allogeneic. In allogeneic combinations, recipient mice were treated orally with vehicle alone or containing Compound A (0.03 μg/kg) fives times per week, from day 0 to day 30 relative to the time of grafting. Aortic grafts were analyzed 60 days after transplantation.

[5] abbreviates: pancreatic lymph node CD4+ cells.
Setting [6] is: pancreatic lymph node CD4+ cells from 20 week-old mice.

In the case of `C[C@H](C/C=C\C(O)(C(F)(F)F)C(F)(F)F)C1=CC[C@H]2/C(=C/C=C3C[C@@H](O)C[C@H](O)C3)CCC[C@]12C` [Compound A, 1,25-dihydroxy-16,23Z-diene-26,27-hexafluoro-19-nor vitamin D3], the “incidence of disease compared to controls” value in series [1] (from 8 to 12 or 16 weeks of age) is “significantly lower”. For the same compound, in series [1] (treated from 8 to 12 weeks of age, vehicle controls about 90%), the “diabetic by 38 weeks of age” value is 50%. Further, in series [1] (treated from 8 to 16 weeks of age, vehicle controls about 90%), the “developed type 1 DM (by 38 weeks of age)” value is 16%. Also, the “hypercalcemia (serum calcium levels)” value in series [2] is given as “did not induce hypercalcemia”. In addition, in series [3] (setting [5]), the “IFN-γ secretion after addition of IL-2 and/or anti-CD28 mAb” value is on record as “restored” and the “proliferation after addition of IL-2, alone or together with anti-CD28 mAb” value was “not restored”. In series [3] (setting [6]), the “proliferation to insolubilized anti-TCR mAb vs age-matched controls” value is on record as “four times less” and the “proliferation to insolubilized anti-TCR mAb vs cells from 8 week-old mice” value is recorded as 10 times less. In series [4], the “CD4, CD8 and B cells in the grafts” value is reported as “complete absence”. Moreover, the “number of macrophages and dendritic cells in the grafts” value in series [4] (vs vehicle) was “profoundly reduced number”.

The values are drawn from US20040214803A1, “Use of vitamin d3 analogue for the treatment of autoimmune diabetes” (priority 2001, published 2004).
